Assay [1] addresses T1, Gonadotropin-releasing hormone receptor (Homo sapiens, UniProt P30968).
T1 sequence (P30968 whole entry): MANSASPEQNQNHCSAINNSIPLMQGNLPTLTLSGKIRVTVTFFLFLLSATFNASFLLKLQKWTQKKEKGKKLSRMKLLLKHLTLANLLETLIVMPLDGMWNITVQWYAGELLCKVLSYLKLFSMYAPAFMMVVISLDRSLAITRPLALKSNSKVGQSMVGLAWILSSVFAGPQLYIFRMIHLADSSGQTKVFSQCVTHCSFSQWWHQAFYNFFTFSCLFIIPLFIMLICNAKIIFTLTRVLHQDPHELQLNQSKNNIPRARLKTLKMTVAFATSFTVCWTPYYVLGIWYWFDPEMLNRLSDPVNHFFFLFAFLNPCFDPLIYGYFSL
The assay can be described thus: Inhibition of GnRH-stimulated phosphatidylinositol (PI) hydrolysis in cloned chinese hamster ovary (CHO) cells expressing human GnRH receptor. Format: functional, cell-based.

In assay [2] the target is T2, Gonadotropin-releasing hormone receptor (Rattus norvegicus, UniProt P30969).
T2 sequence (P30969 whole entry): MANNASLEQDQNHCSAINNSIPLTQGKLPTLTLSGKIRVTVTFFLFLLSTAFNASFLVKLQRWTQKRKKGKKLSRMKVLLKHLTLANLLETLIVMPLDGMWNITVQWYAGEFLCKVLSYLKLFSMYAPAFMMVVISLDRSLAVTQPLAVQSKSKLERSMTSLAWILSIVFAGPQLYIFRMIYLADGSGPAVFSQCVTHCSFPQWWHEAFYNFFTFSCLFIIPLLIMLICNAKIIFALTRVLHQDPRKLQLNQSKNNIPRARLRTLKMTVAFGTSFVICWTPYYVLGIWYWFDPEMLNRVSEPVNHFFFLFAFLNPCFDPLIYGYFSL
The assay can be described thus: Inhibition of GnRH-stimulated luteinizing hormone (LH) release in rat pituitary cells. Format: functional, cell-based, Pituitary gland cell.

The target of assay [3] is T1, Gonadotropin-releasing hormone receptor. The assay can be described thus: Inhibition of [125I]buserelin binding to human Gonadotropin-releasing hormone receptor.
The target of assay [4] is Gonadotropin-releasing hormone receptor (Homo sapiens) (UniProt P30968). Briefly: Inhibition of [125I]buserelin binding to human Gonadotropin-releasing hormone receptor.
Assay [5] addresses T2, Gonadotropin-releasing hormone receptor. The assay can be described thus: Inhibition of [125I]buserelin binding to rat Gonadotropin-releasing hormone receptor.

One may read the IC50 as the concentration that inhibits the measured activity by half. A higher IC50 goes with weaker potency in that assay.

Molecules are shown by their SMILES.

Turning to `Cc1cc(C)cc(-c2[nH]c3ccc(C(=O)NC(C)C)cc3c2CCNCCCCc2cccnc2)c1`, the half-maximal inhibitory concentration (IC50) in assay [1] is 1200 nM; in assay [2], > 1300 nM; in assay [3] it was 55 nM.
For `Cc1cc(C)cc(-c2[nH]c3ccc(C(C)(C)C(=O)N4C(C)CCC4C)cc3c2CCNCCCCc2ccncc2)c1` (configuration not stated), the IC50 is 15 nM in assay [1], 2.8 nM in assay [4] and 160 nM in assay [2].
Turning to `Cc1cc(C)cc(-c2[nH]c3ccc(C(=O)N(C)C)cc3c2CCNCCCCc2cccnc2)c1`, the values for the IC50 in assay [2] and in assay [5] were 2600 nM and 0.7 nM, respectively.
In the case of `Cc1cc(C)cc(-c2[nH]c3ccc(C(=O)N4CCOCC4)cc3c2CCNCCCCc2cccnc2)c1`, the IC50 in assay [2] came out at 1600 nM; in assay [5], 0.4 nM.
For `CCC(C)(C(=O)N1C2CCC1CC2)c1ccc2[nH]c(-c3cc(C)cc(C)c3)c(CCNCCCCc3ccncc3)c2c1` (configuration not stated), the figures for the IC50 in assay [1], in assay [4] and in assay [2] were 38 nM, 1 nM and 240 nM, respectively.
In the case of `Cc1cc(C)cc(-c2[nH]c3ccc(C(C)(C)C(=O)N4C5CCC4CC5)cc3c2CCN(C)CCCCc2ccncc2)c1`, the half-maximal inhibitory concentration (IC50) in assay [1] worked out at 110 nM; in assay [4] it was 1.5 nM; in assay [2] it was 71 nM.
On to `Cc1cc(C)cc(-c2[nH]c3ccc(C(C)(C)C(=O)N4C5CCC4CC5)cc3c2CCNCCCCc2ccncc2)c1`, for which the IC50 in assay [1] was determined as 18 nM; in assay [4] it was 1.4 nM; in assay [2] it was 71 nM.
`Cc1cc(C)cc(-c2[nH]c3ccc(C(=O)N4CCCC4)cc3c2CCNCCCCc2ccncc2)c1`: the IC50 in assay [2] was > 1300 nM; in assay [5], 0.5 nM.
`Cc1cc(C)cc(-c2[nH]c3ccc(C(=O)N(CC(C)C)CC(C)C)cc3c2CCNCCCCc2cccnc2)c1`: the IC50 amounted to 120 nM in assay [1], 150 nM in assay [2], 0.7 nM in assay [5] and 5 nM in assay [3].
For the molecule `Cc1cc(C)cc(-c2[nH]c3ccc(C(C)(C)C(=O)N(CC(C)C)CC(C)C)cc3c2CCNCCCCc2cccnc2)c1`, the IC50 came to 22 nM in assay [1], 1.7 nM in assay [4] and 400 nM in assay [2].
Consider `Cc1cc(C)cc(-c2[nH]c3ccc(C(C)(C)C(=O)N(CC(C)C)CC(C)C)cc3c2CCNCCCCc2ccncc2)c1`, for which the IC50 in assay [1] is 8.3 nM; in assay [4] it was 2.8 nM; in assay [2], 140 nM.
As to `CCN(C(=O)c1ccc2[nH]c(-c3cc(C)cc(C)c3)c(CCNCCCCc3ccncc3)c2c1)C1CCCCCCC1`, the IC50 in assay [1] amounted to 15 nM; in assay [2], 81 nM; in assay [3] it was 1.9 nM.
Regarding `CCN(C(=O)c1ccc2[nH]c(-c3cc(C)cc(C)c3)c(CCNCCCCc3ccncc3)c2c1)C1CCCCC1`, the IC50 stood at 22 nM in assay [1], 130 nM in assay [2], 0.4 nM in assay [5] and 2.8 nM in assay [3].
Take `Cc1cc(C)cc(-c2[nH]c3ccc(C4(C(=O)N5C6CCC5CC6)CCC4)cc3c2CCNCCCCc2ccncc2)c1`: the IC50 in assay [1] was 170 nM; in assay [4] it was 1.2 nM.
Consider `CCN(CC)C(=O)C(C)(C)c1ccc2[nH]c(-c3cc(C)cc(C)c3)c(CCNCCCCc3cccnc3)c2c1`, for which the IC50 in assay [1] was 94 nM; in assay [4], 3.3 nM; in assay [2] it was 240 nM.
With `Cc1cc(C)cc(-c2[nH]c3ccc(C(C)(C)C(=O)N4CCCCC4)cc3c2CCNCCCCc2ccncc2)c1`, the figures for the IC50 in assay [1], in assay [4] and in assay [2] were 38 nM, 1.8 nM and 1200 nM, respectively.
In the case of `Cc1cc(C)cc(-c2[nH]c3ccc(C(C)(C)C(N)=O)cc3c2CCNCCCCc2cccnc2)c1`, the IC50 in assay [1] worked out at 350 nM; in assay [3], 32 nM.
As for `CCN(CC)C(=O)c1ccc2[nH]c(-c3cc(C)cc(C)c3)c(CCNCCCCc3ccncc3)c2c1`, the IC50 in assay [1] worked out at 12 nM; in assay [2], 470 nM; in assay [5], 0.5 nM; in assay [3] it was 18 nM.
On to `Cc1cc(C)cc(-c2[nH]c3ccc(C(C)(C)C(=O)N4CCOCC4)cc3c2CCNCCCCc2ccncc2)c1`, for which the IC50 in assay [1] was found to be 59 nM; in assay [4] it was 11 nM; in assay [2], 540 nM.
On to `Cc1cc(C)cc(-c2[nH]c3ccc(C(C)(C)C(=O)N4C5CCC4CC5)cc3c2CCN(CCCCc2ccncc2)C(C)C)c1`, for which the IC50 in assay [1] stood at 200 nM; in assay [4], 3.1 nM.
With `Cc1cc(C)cc(-c2[nH]c3ccc(C(C)(C)C(=O)N(C)C)cc3c2CCNCCCCc2ccncc2)c1`, the IC50 in assay [2] was 930 nM; in assay [5], 0.3 nM.
For `CCN(C(=O)C(C)(C)c1ccc2[nH]c(-c3cc(C)cc(C)c3)c(CCNCCCCc3ccncc3)c2c1)C1CCCCC1`, the IC50 in assay [1] turned out to be 54 nM; in assay [4] it was 2.3 nM; in assay [2], 960 nM.
For the molecule `CCN(CCO)C(=O)c1ccc2[nH]c(-c3cc(C)cc(C)c3)c(CCNCCCCc3ccncc3)c2c1`, the IC50 was determined as 260 nM in assay [1], 1000 nM in assay [2] and 36 nM in assay [3].
Regarding `Cc1cc(C)cc(-c2[nH]c3ccc(C(=O)N(C(C)C)C(C)C)cc3c2CCNCCCCc2ccncc2)c1`, the IC50 in assay [2] was determined as 400 nM; in assay [5] it was 0.3 nM.
Turning to `Cc1cc(C)cc(-c2[nH]c3ccc(C(=O)N4C(C)CCC4C)cc3c2CCNCCCCc2ccncc2)c1` (configuration not stated), the figures for the IC50 in assay [2] and in assay [5] were 340 nM and 0.3 nM, respectively.
As for `CCCCN(CCCC)C(=O)c1ccc2[nH]c(-c3cc(C)cc(C)c3)c(CCNCCCCc3cccnc3)c2c1`, the concentration for half-maximal inhibition (IC50) is 1000 nM in assay [2] and 0.4 nM in assay [5].
For `Cc1cc(C)cc(-c2[nH]c3ccc(C(=O)N4CCCC4)cc3c2CCNCCCCc2cccnc2)c1`, in that order: 5100 nM and 0.6 nM.
For `Cc1cc(C)cc(-c2[nH]c3ccc(C(=O)N(C)C)cc3c2CCNCCCCc2ccncc2)c1`, the IC50 in assay [2] amounted to 1460 nM; in assay [5], 0.8 nM.
Turning to `CCN(C(=O)c1ccc2[nH]c(-c3cc(C)cc(C)c3)c(CCNCCCCc3cccnc3)c2c1)C(C)C`, the IC50 in assay [1] is 110 nM; in assay [2], 830 nM; in assay [3], 11 nM.
Turning to `CCN(CC)C(=O)c1ccc2[nH]c(-c3cc(C)cc(C)c3)c(CCN(C)CCCCc3ccncc3)c2c1`, the IC50 was found to be 58 nM in assay [1], 430 nM in assay [2] and 30 nM in assay [3].
As for `Cc1cc(C)cc(-c2[nH]c3ccc(C(=O)N4CCOCC4)cc3c2CCNCCCCc2ccncc2)c1`, the results for the IC50 in assay [2] and in assay [5] were 1400 nM and 0.3 nM, respectively.
Consider `CCN(CCCCc1ccncc1)CCc1c(-c2cc(C)cc(C)c2)[nH]c2ccc(C(C)(C)C(=O)N3C4CCC3CC4)cc12`, for which the values for the IC50 in assay [1], in assay [4] and in assay [2] were 90 nM, 2.2 nM and 730 nM, respectively.
In the case of `CCCCN(CCCC)C(=O)c1ccc2[nH]c(-c3cc(C)cc(C)c3)c(CCNCCCCc3ccncc3)c2c1`, the IC50 in assay [2] came out at 240 nM; in assay [5] it was 0.4 nM.
As for `CCN(CC)C(=O)C(C)(C)c1ccc2[nH]c(-c3cc(C)cc(C)c3)c(CCNCCCCc3ccncc3)c2c1`, the figures for the IC50 in assay [1], in assay [4] and in assay [2] were 58 nM, 3.2 nM and 210 nM, respectively.
For the molecule `Cc1cc(C)cc(-c2[nH]c3ccc(C(C)(C)C(=O)N4CCCC4)cc3c2CCNCCCCc2cccnc2)c1`, the figures for the IC50 in assay [1], in assay [4] and in assay [2] were 61 nM, 5 nM and 290 nM, respectively.
For `Cc1cc(C)cc(-c2[nH]c3ccc(C(=O)N4C5CCC4CC5)cc3c2CCNCCCCc2ccncc2)c1`, the figures for the IC50 in assay [1] and in assay [3] were 260 nM and 32 nM, respectively.
In the case of `Cc1cc(C)cc(-c2[nH]c3ccc(C(C)(C)C(=O)N4C5CCC4CC5)cc3c2CCN(CCCCc2ccncc2)CC(C)C)c1`, the IC50 came to 300 nM in assay [1] and 8.2 nM in assay [4].
For `Cc1cc(C)cc(-c2[nH]c3ccc(C(C)(C)C(=O)N(C)C)cc3c2CCNCCCCc2cccnc2)c1`, the IC50 in assay [2] is 680 nM; in assay [5], 0.5 nM.
Turning to `Cc1cc(C)cc(-c2[nH]c3ccc(C(=O)N4C(C)CCC4C)cc3c2CCNCCCCc2cccnc2)c1` (configuration not stated), the IC50 is 62 nM in assay [1], 360 nM in assay [2] and 3.6 nM in assay [3].
On to `Cc1cc(C)cc(-c2[nH]c3ccc(C(C)(C)C(=O)N4C5CCC4CC5)cc3c2CCNCCCCc2cccnc2)c1`, for which the IC50 came out at 14 nM in assay [1], 1.4 nM in assay [4] and 73 nM in assay [2].
Consider `Cc1cc(C)cc(-c2[nH]c3ccc(C(C)(C)C(=O)N4CC(C)(C)C4)cc3c2CCNCCCCc2cccnc2)c1`, for which the IC50 is 62 nM in assay [1], 1 nM in assay [4] and 190 nM in assay [2].
Regarding `COCCN(CCOC)C(=O)c1ccc2[nH]c(-c3cc(C)cc(C)c3)c(CCNCCCCc3cccnc3)c2c1`, the IC50 in assay [1] amounted to 610 nM; in assay [2], 1300 nM; in assay [3], 45 nM.
Take `CCC(CC)(C(=O)N1C2CCC1CC2)c1ccc2[nH]c(-c3cc(C)cc(C)c3)c(CCNCCCCc3ccncc3)c2c1`: the IC50 in assay [1] was determined as 40 nM; in assay [4], 1.7 nM; in assay [2], 260 nM.
For `CCN(CCO)C(=O)c1ccc2[nH]c(-c3cc(C)cc(C)c3)c(CCNCCCCc3cccnc3)c2c1`, the IC50 in assay [2] worked out at 1200 nM; in assay [5], 0.6 nM.

The values are drawn from ChEMBL document CHEMBL1134123, “Potent nonpeptide GnRH receptor antagonists derived from substituted indole-5-carboxamides and -acetamides bearing a pyridine side-chain terminus” (Bioorg Med Chem Lett, 2001).
